Test results as given in patent US9149038B2, “4-amino-6-(heterocyclic)picolinates and 6-amino-2-(heterocyclic)pyrimidine-4-carboxylates and their use as herbicides” (Dow AgroSciences LLC, priority 2013, dated 2015).
Where two headings read alike, the source gives them in different places.

Legend:
[1] = tested on: Key Grass and Sedge Weeds as well as Grass Crops; assay: Post-Emergent Test II: postemergent herbicidal activity, visual rating after 14 d (Table 8); format: in vivo; conditions: post-emergence, 336 h; for pest or weed control at 35 g/ha: 35 g ai/ha; for pest or weed control at 70 g/ha: 70 g ai/ha; for pest or weed control at 140 g/ha: 140 g ai/ha
Method in brief: (§1)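 Scoring is visual, 0-100, at 14 d after application, comparing treated with untreated plants. Application: overhead track spray at 187 L/ha onto seedlings at 1-2 true leaves, in surfactant/crop-oil carrier.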

[2] = tested on: Key Broadleaf Weed and Crop Species; assay: Post-Emergent Test II: postemergent herbicidal activity, visual rating after 14 d (Table 7); format: in vivo; conditions: post-emergence, 336 h; for pest or weed control at 35 g/ha: 35 g ai/ha; for pest or weed control at 70 g/ha: 70 g ai/ha; for pest or weed control at 140 g/ha: 140 g ai/ha
Method in brief: as §1

[3] = barnyardgrass (Echinochloa crus-galli), read-out: Visual Growth Reduction (%) 14 Days After Application ECHCG
[4] = giant foxtail (Setaria faberi), read-out: Visual Growth Reduction (%) 14 Days After Application SETFA
[5] = maize, corn (Zea mays), read-out: Visual Growth Reduction (%) 14 Days After Application ZEAMX
[6] = rice (Oryza sativa), read-out: Visual Growth Reduction (%) 14 Days After Application ORYSA
[7] = wheat, spring (Triticum aestivum), read-out: Visual Growth Reduction (%) 14 Days After Application TRZAS
[8] = yellow nutsedge (Cyperus esculentus), read-out: Visual Growth Reduction (%) 14 Days After Application CYPES
[9] = lambsquarters (Chenopodium album), read-out: Visual Growth Reduction (%) 14 Days After Application CHEAL
[10] = oilseed rape, canola (Brassica napus), read-out: Visual Growth Reduction (%) 14 Days After Application BRSNN
[11] = redroot pigweed (Amaranthus retroflexus), read-out: Visual Growth Reduction (%) 14 Days After Application AMARE
[12] = sunflower (Helianthus annuus), read-out: Visual Growth Reduction (%) 14 Days After Application HELAN
[13] = velvetleaf (Abutilon theophrasti), read-out: Visual Growth Reduction (%) 14 Days After Application ABUTH
[14] = wild poinsettia (Euphorbia heterophylla), read-out: Visual Growth Reduction (%) 14 Days After Application EPHHL

| Structure (SMILES) | pest or weed control at 70 g/ha [1, 3] [%] | pest or weed control at 140 g/ha [1, 3] [%] | pest or weed control at 35 g/ha [1, 4] [%] | pest or weed control at 70 g/ha [1, 4] [%] | pest or weed control at 140 g/ha [1, 4] [%] | pest or weed control at 35 g/ha [1, 5] [%] | pest or weed control at 70 g/ha [1, 5] [%] | pest or weed control at 140 g/ha [1, 5] [%] | pest or weed control at 35 g/ha [1, 6] [%] | pest or weed control at 70 g/ha [1, 6] [%] | pest or weed control at 140 g/ha [1, 6] [%] | pest or weed control at 35 g/ha [1, 7] [%] | pest or weed control at 70 g/ha [1, 7] [%] | pest or weed control at 140 g/ha [1, 7] [%] | pest or weed control at 35 g/ha [1, 8] [%] | pest or weed control at 70 g/ha [1, 8] [%] | pest or weed control at 140 g/ha [1, 8] [%] | pest or weed control at 35 g/ha [2, 9] [%] | pest or weed control at 70 g/ha [2, 9] [%] | pest or weed control at 140 g/ha [2, 9] [%] | further results |
| --- | --- | --- | --- | --- | --- | --- | --- | --- | --- | --- | --- | --- | --- | --- | --- | --- | --- | --- | --- | --- | --- |
| COC(=O)c1nc(-c2ccc3c(c2F)OC(F)(F)O3)c(Cl)c(N)c1Cl [Compound 4] | 0 to 29 | 0 to 29 | 0 to 29 | 0 to 29 | 0 to 29 | 0 to 29 | 0 to 29 | 0 to 29 | 0 to 29 | 0 to 29 | 0 to 29 | 0 to 29 | 0 to 29 | 0 to 29 | 0 to 29 | 0 to 29 | 0 to 29 | 0 to 29 | 0 to 29 | 0 to 29 | pest or weed control at 35 g/ha [1, 3]: 0 to 29%; pest or weed control at 35 g/ha [2, 10]: 0 to 29%; pest or weed control at 70 g/ha [2, 10]: 0 to 29%; pest or weed control at 140 g/ha [2, 10]: 0 to 29%; pest or weed control at 35 g/ha [2, 11]: 0 to 29%; pest or weed control at 70 g/ha [2, 11]: 0 to 29%; pest or weed control at 140 g/ha [2, 11]: 0 to 29%; pest or weed control at 35 g/ha [2, 12]: 0 to 29%; pest or weed control at 70 g/ha [2, 12]: 45 to 59%; pest or weed control at 140 g/ha [2, 12]: 60 to 74%; pest or weed control at 35 g/ha [2, 13]: 0 to 29%; pest or weed control at 70 g/ha [2, 13]: 0 to 29%; pest or weed control at 140 g/ha [2, 13]: 0 to 29%; pest or weed control at 35 g/ha [2, 14]: 0 to 29%; pest or weed control at 70 g/ha [2, 14]: 0 to 29%; pest or weed control at 140 g/ha [2, 14]: 0 to 29% |
| COc1c(N)nc(-c2ccc3c(c2)OC(F)(F)O3)nc1C(=O)O [Compound 63] | 95 to 100 | 95 to 100 | 75 to 84 | 95 to 100 | 95 to 100 | 95 to 100 | 95 to 100 | 95 to 100 | 0 to 29 | 0 to 29 | 0 to 29 | 45 to 59 | 45 to 59 | 45 to 59 | 95 to 100 | 95 to 100 | 95 to 100 | 0 to 29 | 0 to 29 | 0 to 29 | pest or weed control at 35 g/ha [2, 10]: 60 to 74%; pest or weed control at 70 g/ha [2, 10]: 75 to 84%; pest or weed control at 140 g/ha [2, 10]: 75 to 84%; pest or weed control at 35 g/ha [2, 11]: 0 to 29%; pest or weed control at 70 g/ha [2, 11]: 30 to 44%; pest or weed control at 140 g/ha [2, 11]: 60 to 74%; pest or weed control at 35 g/ha [2, 12]: 85 to 94%; pest or weed control at 70 g/ha [2, 12]: 85 to 94%; pest or weed control at 140 g/ha [2, 12]: 85 to 94%; pest or weed control at 35 g/ha [2, 13]: 85 to 94%; pest or weed control at 70 g/ha [2, 13]: 60 to 74%; pest or weed control at 140 g/ha [2, 13]: 85 to 94%; pest or weed control at 35 g/ha [2, 14]: 95 to 100%; pest or weed control at 70 g/ha [2, 14]: 95 to 100%; pest or weed control at 140 g/ha [2, 14]: 95 to 100% |
